Data taken from US6420367B1, “Pyrimidine derivatives exhibiting antitumor activity” (Shionogo & Co., Ltd., priority 1998, dated 2002).
Converted amounts (≈) assume the structure as drawn.

Key:
[1] = test system: DT-R cells (pRRE3-luc-transfected v-ki-ras-transformed NIH3T3 cells); signal derived from Ras oncogene products; test: Inhibitory effect against cellular signaling derived from Ras oncogene products: luciferase reporter, dissociation of DT-R from DT-C activity (MAC); format: cell-based, mouse; conditions: minimal tested concentration at which luciferase activities of DT-C cells and DT-R cells dissociated
Method in brief: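 DT-R (pRRE3-luc) and control DT-C (pGV-P) v-Ki-ras NIH3T3 cells were exposed 24 h to compound in 3-fold dilutions in DMEM/10% FCS at 37 °C, then lysed for luciferase luminescence. MAC is the lowest tested concentration at which DT-R and DT-C activities dissociate.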

[2] = test system: DT-C cells (pGV-P-transfected v-ki-ras-transformed NIH3T3 cells); test: Luciferase activity in control DT-C cells (IC50-C): non-specific transcription-inhibitory effect or cytotoxicity; format: cell-based, mouse; conditions: tested concentration nearest to 50% inhibition in DT-C cells; index of non-specific transcription inhibition or cytotoxicity
Text: Test Example 1 Inhibitory Effect Against Cellular Signaling Derived From Ras Oncogene Products
1) Establishment of Cell Lines Used in Assay
Based on the reporter plasmid (pGV-P (Toyo Ink, Japan)), in which luciferase gene was ligated to SV40-derived minimal promoter, we constructed a plasmid designated pRRE3-luc by inserting 3 copies of chemically synthesized oligonucleotides (Sequence: CAGGATATGACTCT, derived from mouse NVL-3 (M. A. Reddy et al.(1992)Mol. Endocrinol., 6, 1051)) into upstream of the promoter. v-ki-ras-transformed NIH3T3 cells (DT cells, provided by Dr. Makoto Noda (Kyoto Univ., School of medicine)) were transfected with this plasmid by liposome-mediated transfection and transfected cell lines stably incorporated and maintained each plasmid were obtained. We named pGV-P and pRRE3-transfected cell line as DT-C and DT-R, respectively and used in the assay described below.
2) Preparation of Samples
i) All the cell lines were cultured in Dulbecco's Modified Essential Medium (DMEM: 10% Fetal Calf Serum(FCS: Hyclone, USA)) including […] kanamycin (Meiji Seika, Japan) in humidified incubator under condition of 5% CO2 at 37° C.
ii) DT-C and DT-R cells were seeded at 2500 cells/well into flat-bottom 96 well multiplate (Sumitomo bakelite) and incubated for 24 hours.
iii) Test compounds were prepared as 1 mg/ml DMSO solution.
iv) The solution of test compounds were added to the culture. Tested compounds are used at the concentration from […] to 0.51 ng/ml with by 3-fold dilution.
v) After 24 hours, the culture supernatant was completely aspirated and […] of cell-lysing solution (PGC-50 (Toyo Ink, Japan)) was added before cells were dried up. In order to the cells were lysed completely, multiwell plates were left at room temperature for 10 to 30 min. The plates were wrapped up and stored at −20° C. till the day of measurement.
3) Measurement of Samples
i) Melt the samples by putting 96 well multiplate at 37° C. and add 90 μl/well 25 mM Tris (pH 7.5).
ii) Transfer 50 μl of the sample (110 μl) to the 96 well microplate for measurement (Microlite 1 (Dynatech)).
iii) Measure the samples by the luminometer, LUMINOUS CT9000D (Dia-Yatron, Japan). We used Pickagene luminescence kit PGL2000 or LT2.0 (Toyo Ink, Japan) as substrates for luminescence measurement (50 μl/well).
4) Judgment of the Results
i) The luciferase activity of DT-C cells and DT-R cells were plotted in the graph where the relative activity and the compound concentration were expressed as Y-axis and X-axis, respectively. We judged by the degree of dissociation between the activities of DT-C cells and DT-R cells as an index.
ii) Concretely, efficacy of the compound was expressed by two values described below.
b) Among the points of concentration tested, the concentration which is the nearest to 50% inhibition concentration at DT-C cells (IC50-C), was shown as an index of non-specific transcription-inhibitory effect or of cytotoxicity. In case of positive compounds, 50% inhibition concentration above the area of active concentration in DT-C cells was expressed as IC50-C.

human colon cancer HT29 = test: In vitro cell growth inhibition test, MTT assay; format: cell-based; conditions: MTT assay 4 days after compound addition
Method in brief: (§1)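 Growth inhibition was measured by MTT assay across a panel of human tumour cell lines that also included pancreatic cancer PANC-1.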

[3] = test system: human lung adenocarcinoma A549; test: In vitro cell growth inhibition test, MTT assay; format: cell-based; conditions: MTT assay 4 days after compound addition
Method in brief: as §1

[4] = test system: human squamous lung cancer Ma44; test: In vitro cell growth inhibition test, MTT assay; format: cell-based; conditions: MTT assay 4 days after compound addition
Method in brief: as §1

[5] = test system: human squamous lung cancer RERF-RC-AI; test: In vitro cell growth inhibition test, MTT assay; format: cell-based; conditions: MTT assay 4 days after compound addition
Method in brief: as §1

[6] = test system: human pancreas cancer PANC-1; test: In vitro cell growth inhibition test, MTT assay; format: cell-based; conditions: MTT assay 4 days after compound addition
Method in brief: as §1

IC50, HT29 (human colon cancer HT29) [µg/mL]	IC50, A549 [3] [µg/mL]	IC50, Ma44 [4] [µg/mL]	IC50, RERF-LC-AI [5] [µg/mL]	IC50, PANC-1 [6] [µg/mL]	SMILES	MAC (Minimal Active Concentration) [1] [µg/mL]	IC50-C [2] [µg/mL]
0.043 (≈ 0.104 µM)	0.14 (≈ 0.339 µM)	0.097 (≈ 0.235 µM)	0.02 (≈ 0.0484 µM)	0.036 (≈ 0.0871 µM)	CCNC(=Nc1nc(C)ncc1CSc1nnc(-c2ccc(O)cc2)o1)NCC [Compound A-88]	0.123	>10
0.01 (≈ 0.0201 µM)	0.017 (≈ 0.0342 µM)	0.015 (≈ 0.0302 µM)	0.0053 (≈ 0.0107 µM)	0.01 (≈ 0.0201 µM)	CCNC(=Nc1nc(C)ncc1CSc1nnc(-c2ccc([N+](=O)[O-])cc2)o1)NCC(F)(F)F [Compound A-175]	0.0137	3.33 (≈ 6.71 µM)
0.0071 (≈ 0.0178 µM)	0.012 (≈ 0.0301 µM)	0.0087 (≈ 0.0218 µM)	0.004 (≈ 0.01 µM)	0.0076 (≈ 0.0191 µM)	CCNC(=Nc1ncncc1CSc1nnc(-c2ccccc2N)o1)NCC [Compound A-33]	0.0137	>10
0.043 (≈ 0.0924 µM)	0.082 (≈ 0.176 µM)	0.086 (≈ 0.185 µM)		0.056 (≈ 0.12 µM)	CCNC(=Nc1nc(C)ncc1CSc1nnc(-c2ccc(C(F)(F)F)cc2)o1)NCC [Compound A-106]	0.370	>10

Further lines, the compound ahead of its results:

SMILES	IC50, HT29 (human colon cancer HT29) [µg/mL]	IC50, A549 [3] [µg/mL]	IC50, Ma44 [4] [µg/mL]	IC50, RERF-LC-AI [5] [µg/mL]	IC50, PANC-1 [6] [µg/mL]	MAC (Minimal Active Concentration) [1] [µg/mL]	IC50-C [2] [µg/mL]
CCCCNC(=Nc1nc(C)ncc1CSc1nnc(-c2ccc([N+](=O)[O-])cc2)o1)NCC [Compound A-136]	0.011 (≈ 0.0234 µM)	0.031 (≈ 0.0659 µM)	0.016 (≈ 0.034 µM)	0.012 (≈ 0.0255 µM)	0.016 (≈ 0.034 µM)	0.0137	3.33 (≈ 7.08 µM)
CCc1ncc(CSc2nnc(-c3ccc(N)cc3)o2)c(N=C(NC)NC)n1 [Compound A-153]	0.015 (≈ 0.0376 µM)	0.067 (≈ 0.168 µM)	0.089 (≈ 0.223 µM)	0.011 (≈ 0.0276 µM)	0.022 (≈ 0.0552 µM)	0.0412	>10
CCNC(=Nc1nc(C)ncc1CSc1nnc(-c2ccc(OC)cc2)o1)NCC [Compound A-73]	0.016 (≈ 0.0374 µM)	0.052 (≈ 0.122 µM)	0.048 (≈ 0.112 µM)	0.012 (≈ 0.0281 µM)	0.029 (≈ 0.0678 µM)	0.123	>10
CCNC(=Nc1nc(C)ncc1CSc1nnc(-c2ccc(Br)cc2)o1)NCC [Compound A-108]	0.022 (≈ 0.0462 µM)	0.027 (≈ 0.0567 µM)	0.029 (≈ 0.0609 µM)		0.027 (≈ 0.0567 µM)	0.123	>10
CCCNC(=Nc1nc(C)ncc1CSc1nnc(-c2ccc(Cl)cc2)o1)NCCC [Compound A-142]	0.032 (≈ 0.0696 µM)	0.038 (≈ 0.0826 µM)	0.021 (≈ 0.0457 µM)	0.018 (≈ 0.0391 µM)	0.015 (≈ 0.0326 µM)	0.0412	1.11 (≈ 2.41 µM)
CCNC(=Nc1nc(C)ncc1CSc1nnc(-c2ccc(N)cc2)o1)NCC.Cl.Cl [Compound A-186]	0.014	0.048	0.057	0.014	0.017	0.0412	>10
